Columns and labels:
[1] = target: T1, 5-hydroxytryptamine receptor 2A (Homo sapiens, UniProt P28223); assay: Displacement of [3H]ketanserin from human 5-HT2A receptor expressed in HEK-T cell membranes at 10 uM incubated for 90 mins under dark condition by microbeta scintillation counting method relative to control
Adenosine receptor A2a [2] = target: T2, Adenosine receptor A2a (Homo sapiens, UniProt P29274); assay: Displacement of [3 H]2-[p-(2-carboxyethyl)phenyl-ethylamino]-5'-N-ethylcarboxamidoadenosine from recombinant human adenosine receptor A2A expressed in HEK293 cell membranes after 60 mins by liquid scintillation counting method
T2 sequence (P29274 whole entry): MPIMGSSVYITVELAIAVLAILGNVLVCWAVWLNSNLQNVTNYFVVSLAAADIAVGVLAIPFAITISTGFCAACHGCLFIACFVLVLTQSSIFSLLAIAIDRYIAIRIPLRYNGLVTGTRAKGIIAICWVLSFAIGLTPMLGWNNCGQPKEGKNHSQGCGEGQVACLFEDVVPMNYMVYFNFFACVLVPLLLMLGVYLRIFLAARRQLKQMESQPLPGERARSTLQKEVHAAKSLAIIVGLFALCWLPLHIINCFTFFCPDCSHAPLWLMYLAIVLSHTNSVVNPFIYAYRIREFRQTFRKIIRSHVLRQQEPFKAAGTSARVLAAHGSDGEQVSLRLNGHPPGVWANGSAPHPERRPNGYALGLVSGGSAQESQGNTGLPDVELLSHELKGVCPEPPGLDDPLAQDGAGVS

[3] = Metabolic stability in rat plasma assessed as compound remaining measured after 120 mins; format: ADME, cell-free; settings: 2 h
[4] = target: 5-hydroxytryptamine receptor 4 (Homo sapiens) (UniProt Q13639); assay: Displacement of [3H]GR113808 from human 5-HT4 receptor at 10 uM incubated for 90 mins under dark condition by microbeta scintillation counting method relative to control
5-hydroxytryptamine receptor 4 (Homo sapiens), sequence (Q13639 whole entry): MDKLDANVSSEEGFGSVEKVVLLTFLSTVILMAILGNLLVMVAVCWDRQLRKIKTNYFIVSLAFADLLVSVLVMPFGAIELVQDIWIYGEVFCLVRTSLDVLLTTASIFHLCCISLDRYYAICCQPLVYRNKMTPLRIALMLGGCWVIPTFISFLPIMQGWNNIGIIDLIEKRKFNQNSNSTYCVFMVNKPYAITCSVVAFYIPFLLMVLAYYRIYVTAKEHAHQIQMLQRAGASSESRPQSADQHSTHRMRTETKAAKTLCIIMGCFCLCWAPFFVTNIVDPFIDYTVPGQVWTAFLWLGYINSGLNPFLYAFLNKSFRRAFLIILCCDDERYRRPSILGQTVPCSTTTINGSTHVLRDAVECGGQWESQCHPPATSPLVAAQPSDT

[5] = Apparent permeability across apical side to basolateral side in human Caco2 cells; format: ADME, cell-based; settings: caco-2
[6] = Volume of distribution at steady state in Sprague-Dawley rat at 1 mg/kg, iv administered as single dose; format: ADME, organism-based; settings: in vivo
[7] = target: T1, 5-hydroxytryptamine receptor 2A; assay: Displacement of [3H]ketanserin from human 5-HT2A receptor expressed in HEK-T cell membranes incubated for 90 mins under dark condition by microbeta scintillation counting method
Cytochrome P450 3A4 = Cytochrome P450 3A4 (Homo sapiens, UniProt P08684); assay: Inhibition of CYP3A4 (unknown origin); format: ADME
Cytochrome P450 3A4, sequence (P08684 whole entry): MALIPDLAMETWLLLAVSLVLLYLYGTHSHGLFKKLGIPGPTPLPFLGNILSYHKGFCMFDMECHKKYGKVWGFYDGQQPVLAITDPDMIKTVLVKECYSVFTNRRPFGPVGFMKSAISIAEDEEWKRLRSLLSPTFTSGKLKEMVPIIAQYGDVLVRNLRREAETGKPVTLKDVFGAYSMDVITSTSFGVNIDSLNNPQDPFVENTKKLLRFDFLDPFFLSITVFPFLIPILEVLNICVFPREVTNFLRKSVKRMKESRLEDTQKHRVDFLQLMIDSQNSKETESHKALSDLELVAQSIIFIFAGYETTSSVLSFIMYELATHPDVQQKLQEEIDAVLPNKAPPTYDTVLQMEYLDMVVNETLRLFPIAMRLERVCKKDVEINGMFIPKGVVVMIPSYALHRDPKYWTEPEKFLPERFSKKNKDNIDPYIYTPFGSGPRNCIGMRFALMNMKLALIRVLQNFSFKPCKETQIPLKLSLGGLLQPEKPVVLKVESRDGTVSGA

[8] = Growth inhibition of human HepG2 cells at 30 uM; format: cell-based; settings: read-out: GI
[9] = Half life in mouse liver microsomes; format: ADME
[10] = Initial plasma concentration in Sprague-Dawley rat at 1 mg/kg, iv administered as single dose; format: ADME, organism-based; settings: in vivo
[11] = Half life in Sprague-Dawley rat at 1 mg/kg, iv administered as single dose; format: ADME, organism-based; settings: in vivo
[12] = Stability of compound in pH 1.6 fasted state simulated gastric fluid assessed as compound remaining measured after 2 hrs; format: ADME; settings: read-out: Stability
[13] = Apparent permeability across basolateral side to apical side in human Caco2 cells; format: ADME, cell-based; settings: caco-2
[14] = Metabolic stability in human plasma assessed as compound remaining measured after 120 mins; format: ADME, cell-free; settings: read-out: Stability
[15] = target: 5-hydroxytryptamine receptor 1B (Homo sapiens) (UniProt P28222); assay: Displacement of [3H]5-CT from human 5-HT1BR expressed in HEK cell membranes at 10 uM incubated for 90 mins under dark condition by microbeta scintillation counting method relative to control; settings: HEK293
5-hydroxytryptamine receptor 1B (Homo sapiens), sequence (P28222 whole entry): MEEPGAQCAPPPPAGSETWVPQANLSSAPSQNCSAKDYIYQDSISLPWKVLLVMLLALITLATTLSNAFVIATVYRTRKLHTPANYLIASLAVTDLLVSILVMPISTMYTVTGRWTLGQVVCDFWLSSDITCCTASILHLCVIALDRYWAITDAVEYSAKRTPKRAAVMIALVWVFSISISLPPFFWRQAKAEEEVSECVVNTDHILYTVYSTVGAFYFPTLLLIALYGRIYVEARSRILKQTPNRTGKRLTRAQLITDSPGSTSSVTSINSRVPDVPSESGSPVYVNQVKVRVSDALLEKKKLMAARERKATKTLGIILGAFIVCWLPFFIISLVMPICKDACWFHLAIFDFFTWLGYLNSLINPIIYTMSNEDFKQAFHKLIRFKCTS

[16] = Half life of compound in fasted state simulated intestinal fluid at pH 6.5; format: ADME; settings: simulated gi fluid
Cytochrome P450 2C9 = Cytochrome P450 2C9 (Homo sapiens, UniProt P11712); assay: Inhibition of CYP2C9 (unknown origin); format: ADME
Cytochrome P450 2C9, sequence (P11712 whole entry): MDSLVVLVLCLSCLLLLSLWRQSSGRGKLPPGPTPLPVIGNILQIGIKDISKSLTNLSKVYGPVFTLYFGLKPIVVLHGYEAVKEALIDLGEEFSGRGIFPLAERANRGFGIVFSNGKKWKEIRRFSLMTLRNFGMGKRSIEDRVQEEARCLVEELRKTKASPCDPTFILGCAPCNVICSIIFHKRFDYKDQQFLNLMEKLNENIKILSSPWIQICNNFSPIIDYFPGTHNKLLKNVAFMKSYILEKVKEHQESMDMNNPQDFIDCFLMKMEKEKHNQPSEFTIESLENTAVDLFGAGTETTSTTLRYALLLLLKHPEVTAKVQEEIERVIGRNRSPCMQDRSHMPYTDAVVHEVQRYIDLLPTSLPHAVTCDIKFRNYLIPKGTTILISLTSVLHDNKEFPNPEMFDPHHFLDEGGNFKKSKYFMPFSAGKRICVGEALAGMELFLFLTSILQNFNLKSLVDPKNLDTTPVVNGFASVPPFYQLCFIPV

[17] = Half life in human liver microsomes; format: ADME
[18] = target: T3, 5-hydroxytryptamine receptor 3A (Homo sapiens) (UniProt P46098); assay: Displacement of [3H]GR65630 from human 5-HT3 receptor expressed in HEK-T cell membranes at 10 uM incubated for 90 mins under dark condition by microbeta scintillation counting method relative to control
T3 sequence (whole entry): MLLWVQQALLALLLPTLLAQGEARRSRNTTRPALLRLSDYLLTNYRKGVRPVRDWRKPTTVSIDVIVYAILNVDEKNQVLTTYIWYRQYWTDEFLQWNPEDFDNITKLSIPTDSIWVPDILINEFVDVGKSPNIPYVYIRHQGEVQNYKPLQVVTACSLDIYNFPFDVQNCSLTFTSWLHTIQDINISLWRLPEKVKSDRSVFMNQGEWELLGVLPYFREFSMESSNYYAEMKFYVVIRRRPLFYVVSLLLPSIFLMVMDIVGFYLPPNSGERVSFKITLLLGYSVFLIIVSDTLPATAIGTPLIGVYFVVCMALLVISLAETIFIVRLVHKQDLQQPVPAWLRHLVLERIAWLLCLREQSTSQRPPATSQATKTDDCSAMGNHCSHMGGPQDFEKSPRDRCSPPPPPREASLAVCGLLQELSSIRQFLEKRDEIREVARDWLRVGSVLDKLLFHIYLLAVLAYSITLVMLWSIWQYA

Adenosine receptor A1 = target: T4, Adenosine receptor A1 (Homo sapiens, UniProt P30542); assay: Displacement of [3H]N6-phenylisopropyladenosine from recombinant human A1AR expressed in CHO cell membranes after 60 mins by liquid scintillation counting method
T4 sequence (P30542 whole entry): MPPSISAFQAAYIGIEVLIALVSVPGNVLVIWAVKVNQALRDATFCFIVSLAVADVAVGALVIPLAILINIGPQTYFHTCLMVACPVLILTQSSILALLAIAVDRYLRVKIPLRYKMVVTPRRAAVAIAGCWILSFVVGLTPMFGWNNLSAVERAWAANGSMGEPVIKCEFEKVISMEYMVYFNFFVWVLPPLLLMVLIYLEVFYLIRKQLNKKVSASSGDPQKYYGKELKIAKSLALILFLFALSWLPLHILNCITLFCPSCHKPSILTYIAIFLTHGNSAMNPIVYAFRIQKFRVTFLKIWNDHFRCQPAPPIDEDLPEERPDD

[19] = Half life in rat liver microsomes; format: ADME
[20] = Half life of compound in fasted state simulated gastric fluid at pH 1.6; format: ADME, tissue-based, Stomach; settings: simulated gi fluid
[21] = Metabolic stability in human liver microsomes assessed as compound remaining measured after 1 hr in presence of cofactor; format: ADME
[22] = Metabolic stability in mouse plasma assessed as compound remaining measured after 120 mins; format: ADME, cell-free; settings: 2 h
[23] = target: 5-hydroxytryptamine receptor 7 (Homo sapiens) (UniProt P34969); assay: Displacement of [3H]LSD from human 5-HT7A receptor expressed in HEK cell membranes at 10 uM incubated for 90 mins under dark condition by microbeta scintillation counting method relative to control; settings: HEK293
5-hydroxytryptamine receptor 7 (Homo sapiens), sequence (P34969 whole entry): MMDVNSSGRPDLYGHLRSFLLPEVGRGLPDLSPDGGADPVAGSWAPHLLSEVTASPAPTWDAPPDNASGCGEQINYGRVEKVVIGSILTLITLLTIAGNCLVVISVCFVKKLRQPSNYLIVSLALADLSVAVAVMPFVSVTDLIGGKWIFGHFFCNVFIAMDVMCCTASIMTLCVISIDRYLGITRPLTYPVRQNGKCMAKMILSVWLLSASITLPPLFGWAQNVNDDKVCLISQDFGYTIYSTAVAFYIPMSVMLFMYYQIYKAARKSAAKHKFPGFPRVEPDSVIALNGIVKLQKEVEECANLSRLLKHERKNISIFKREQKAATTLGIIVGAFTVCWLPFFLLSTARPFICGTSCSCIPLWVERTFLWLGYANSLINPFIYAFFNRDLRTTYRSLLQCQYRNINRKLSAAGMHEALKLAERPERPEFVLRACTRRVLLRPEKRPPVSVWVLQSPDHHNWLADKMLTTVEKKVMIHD

[24] = target: 5-hydroxytryptamine receptor 2B (Homo sapiens, UniProt P41595); format: functional, cell-based, HEK293
5-hydroxytryptamine receptor 2B, sequence (P41595 whole entry): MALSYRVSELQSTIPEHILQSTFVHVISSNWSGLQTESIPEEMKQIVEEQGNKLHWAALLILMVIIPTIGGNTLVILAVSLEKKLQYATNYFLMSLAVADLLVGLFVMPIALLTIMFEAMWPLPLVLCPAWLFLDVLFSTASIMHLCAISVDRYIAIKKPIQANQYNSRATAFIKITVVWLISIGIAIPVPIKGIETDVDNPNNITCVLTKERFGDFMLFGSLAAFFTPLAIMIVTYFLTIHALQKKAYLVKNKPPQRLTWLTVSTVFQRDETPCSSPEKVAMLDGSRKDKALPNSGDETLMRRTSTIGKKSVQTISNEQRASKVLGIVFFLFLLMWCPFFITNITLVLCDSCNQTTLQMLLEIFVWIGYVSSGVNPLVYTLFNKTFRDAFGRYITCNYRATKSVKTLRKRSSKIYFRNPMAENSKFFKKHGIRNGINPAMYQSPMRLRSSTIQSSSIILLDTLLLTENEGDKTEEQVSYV

[25] = Intrinsic clearance in human liver microsomes; format: ADME
[26] = Stability of compound in pH 6.5 fasted state simulated intestinal fluid assessed as compound remaining measured after 2 hrs; format: ADME; settings: simulated gi fluid, pH 6.5, 2 h
Adenosine receptor A2a [27] = target: T2, Adenosine receptor A2a; assay: Displacement of [3 H]2-[p-(2-carboxyethyl)phenyl-ethylamino]-5'-N-ethylcarboxamidoadenosine from recombinant human adenosine receptor A2A expressed in HEK293 cell membranes at 10 uM after 60 mins by liquid scintillation counting method relative to control
[28] = target: T5, Adenosine receptor A1 (Homo sapiens) (UniProt P30542); assay: Agonist activity at recombinant human A1AR expressed in CHO cells assessed as inhibition of forskolin-stimulated cAMP accumulation at 10 uM after 15 mins relative to N6-cyclopentyladenosine; format: functional, cell-based
T5 sequence (whole entry): T4 sequence (P30542 whole entry)

[29] = target: T1, 5-hydroxytryptamine receptor 2A; assay: Agonist activity at human 5-HT2AR expressed in Flp-In HEK cells assessed as calcium mobilization at 10 uM measured for 2 mins by Fluo-4 dye based FLIPR assay; format: cell-based; settings: hek293, 2 min
[30] = target: T1, 5-hydroxytryptamine receptor 2A; assay: Antagonist activity at human 5-HT2AR expressed in Flp-In HEK cells assessed as inhibition of serotonin induced calcium mobilization at 10 uM preincubated for 5 to 10 mins followed by serotonin addition by Fluo-4 dye based FLIPR assay relative to control; format: functional, cell-based; settings: HEK293

T1 sequence (P28223 whole entry): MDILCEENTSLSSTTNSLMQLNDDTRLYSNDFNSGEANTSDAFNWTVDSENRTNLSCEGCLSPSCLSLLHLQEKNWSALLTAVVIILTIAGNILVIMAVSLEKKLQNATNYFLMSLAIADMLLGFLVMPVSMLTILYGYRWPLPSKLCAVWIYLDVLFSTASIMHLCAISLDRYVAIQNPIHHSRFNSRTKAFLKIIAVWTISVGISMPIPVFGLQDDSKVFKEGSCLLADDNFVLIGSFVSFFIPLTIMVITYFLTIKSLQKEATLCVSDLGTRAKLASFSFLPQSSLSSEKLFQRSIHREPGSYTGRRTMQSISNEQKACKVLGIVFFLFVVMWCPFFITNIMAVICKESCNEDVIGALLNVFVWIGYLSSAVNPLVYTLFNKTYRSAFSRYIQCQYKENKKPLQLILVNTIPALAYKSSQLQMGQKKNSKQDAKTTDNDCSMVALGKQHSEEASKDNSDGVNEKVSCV

SMILES	inhibition [1] [%]	Ki (Adenosine receptor A2a [2]) [nM]	Stability [3] [%]	inhibition [4] [%]	Papp [5] [×10⁻⁶ cm/s]	Vdss [6] [L/kg]	Ki [7] [nM]	inhibition at 30 µM [8] [%]	t1/2 [9] [h]	C0 [10] [ng/mL]	t1/2 [11] [h]	remaining at 2 h [12] [%]	Papp [13] [×10⁻⁶ cm/s]	remaining at 2 h [14] [%]	inhibition [15] [%]	t1/2 [16] [h]	inhibition [18] [%]	Ki (Adenosine receptor A1) [nM]	inhibition [23] [%]	Ki [24] [nM]	also measured
CNC(=O)[C@@]12C[C@@H]1[C@@H](n1cnc3c(NC(C4CC4)C4CC4)nc(Cl)nc31)[C@H](O)[C@@H]2O	< 10	4320	88.7	< 50	4.73	3.16	> 10000	< 30	> 2.42	1070	2.89	50	46.21	100 to 104	< 50	> 8	< 50	110	< 50	4.4	IC50 (Cytochrome P450 3A4): > 30000 nM; IC50 (Cytochrome P450 2C9): > 30000 nM; t1/2 [17]: 2.17 h; t1/2 [19]: > 2.33 h; t1/2 [20]: 2.2 h; Stability [21]: 87%; Stability [22]: 95%; CLH [25]: 1.75 µL/min/mg
COC(=O)[C@@]12C[C@@H]1[C@@H](n1cnc3c(NC(C4CC4)C4CC4)nc(Cl)nc31)[C@H](O)[C@@H]2O	< 10	–	70.9	< 50	18.47	4.62	> 10000	< 30	> 2.33	349	3.56	50	30.59	95.3 to 100	< 50	> 8	< 50	437	< 50	3.2	Stability [26]: 97%; inhibition (Adenosine receptor A2a [27]): 33%; IC50 (Cytochrome P450 2C9): 20100 nM; t1/2 [17]: > 2.33 h; t1/2 [19]: > 2.33 h; t1/2 [20]: 2.08 h; Stability [21]: 94%; Stability [22]: 61%; CLH [25]: 0.77 µL/min/mg
OC[C@@]12C[C@@H]1[C@@H](n1cnc3c(NC(C4CC4)C4CC4)nc(Cl)nc31)[C@H](O)[C@@H]2O	< 10	2200	–	< 50	–	–	> 10000	–	–	–	–	–	–	–	< 50	–	< 50	39	< 50	–	Imax [28]: 104%
CCOC(=O)[C@@]12C[C@@H]1[C@@H](n1cnc3c(NC(C4CC4)C4CC4)nc(Cl)nc31)[C@H](O)[C@@H]2O	–	–	–	< 50	–	–	> 10000	–	–	–	–	–	–	–	< 50	–	< 50	360	< 50	1.8	Activity [29]: > 10%; inhibition [30]: > 10%; Imax [28]: 89%

From ChEMBL document CHEMBL3862033 (J Med Chem, 2016)
